Test results: ChEMBL document CHEMBL5321287, “Discovery, Synthesis, and Evaluation of Novel Dual Inhibitors of a Vascular Endothelial Growth Factor Receptor and Poly(ADP-Ribose) Polymerase for BRCA Wild-Type Breast Cancer Therapy” (J Med Chem, 2023)
pIC50: −log10 of the molar value. Calls of active or inactive are those of the source. No cut-off for these calls is given here.

Assays:
[1] = molecular target: T1, Poly [ADP-ribose] polymerase 1 (Homo sapiens, UniProt P09874); test: Inhibition of PARP1 (unknown origin)
T1 sequence (P09874 whole entry): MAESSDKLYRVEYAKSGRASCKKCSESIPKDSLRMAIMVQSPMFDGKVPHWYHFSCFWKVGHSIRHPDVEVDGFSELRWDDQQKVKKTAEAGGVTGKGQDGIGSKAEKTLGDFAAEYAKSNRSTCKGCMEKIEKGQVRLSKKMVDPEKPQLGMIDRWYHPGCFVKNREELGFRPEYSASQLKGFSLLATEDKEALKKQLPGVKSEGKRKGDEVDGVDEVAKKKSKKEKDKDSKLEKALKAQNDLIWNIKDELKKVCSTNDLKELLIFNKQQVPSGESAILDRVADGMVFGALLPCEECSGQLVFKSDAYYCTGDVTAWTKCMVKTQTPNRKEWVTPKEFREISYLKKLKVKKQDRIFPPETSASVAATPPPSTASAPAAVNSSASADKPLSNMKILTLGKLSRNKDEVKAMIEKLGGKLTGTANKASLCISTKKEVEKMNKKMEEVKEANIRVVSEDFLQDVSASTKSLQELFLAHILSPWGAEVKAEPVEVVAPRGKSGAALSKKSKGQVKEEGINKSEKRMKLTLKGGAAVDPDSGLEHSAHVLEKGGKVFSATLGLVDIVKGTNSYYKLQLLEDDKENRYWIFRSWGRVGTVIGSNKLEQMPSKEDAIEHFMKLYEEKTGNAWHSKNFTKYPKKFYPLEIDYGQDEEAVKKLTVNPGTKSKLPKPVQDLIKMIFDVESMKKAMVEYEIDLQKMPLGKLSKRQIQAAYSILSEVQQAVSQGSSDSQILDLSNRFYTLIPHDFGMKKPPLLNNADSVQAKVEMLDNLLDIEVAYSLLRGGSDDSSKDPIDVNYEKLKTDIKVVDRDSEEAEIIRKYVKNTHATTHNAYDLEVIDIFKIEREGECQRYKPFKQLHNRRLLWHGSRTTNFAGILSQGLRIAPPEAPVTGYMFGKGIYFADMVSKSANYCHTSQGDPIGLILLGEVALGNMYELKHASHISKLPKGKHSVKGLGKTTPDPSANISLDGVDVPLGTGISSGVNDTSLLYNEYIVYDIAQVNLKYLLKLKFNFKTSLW

[2] = molecular target: Vascular endothelial growth factor receptor 2 (Homo sapiens, UniProt P35968); test: Inhibition of VEGFR2 (unknown origin) by Z'-Lyte kinase assay
Chain of Vascular endothelial growth factor receptor 2 (P35968 whole entry): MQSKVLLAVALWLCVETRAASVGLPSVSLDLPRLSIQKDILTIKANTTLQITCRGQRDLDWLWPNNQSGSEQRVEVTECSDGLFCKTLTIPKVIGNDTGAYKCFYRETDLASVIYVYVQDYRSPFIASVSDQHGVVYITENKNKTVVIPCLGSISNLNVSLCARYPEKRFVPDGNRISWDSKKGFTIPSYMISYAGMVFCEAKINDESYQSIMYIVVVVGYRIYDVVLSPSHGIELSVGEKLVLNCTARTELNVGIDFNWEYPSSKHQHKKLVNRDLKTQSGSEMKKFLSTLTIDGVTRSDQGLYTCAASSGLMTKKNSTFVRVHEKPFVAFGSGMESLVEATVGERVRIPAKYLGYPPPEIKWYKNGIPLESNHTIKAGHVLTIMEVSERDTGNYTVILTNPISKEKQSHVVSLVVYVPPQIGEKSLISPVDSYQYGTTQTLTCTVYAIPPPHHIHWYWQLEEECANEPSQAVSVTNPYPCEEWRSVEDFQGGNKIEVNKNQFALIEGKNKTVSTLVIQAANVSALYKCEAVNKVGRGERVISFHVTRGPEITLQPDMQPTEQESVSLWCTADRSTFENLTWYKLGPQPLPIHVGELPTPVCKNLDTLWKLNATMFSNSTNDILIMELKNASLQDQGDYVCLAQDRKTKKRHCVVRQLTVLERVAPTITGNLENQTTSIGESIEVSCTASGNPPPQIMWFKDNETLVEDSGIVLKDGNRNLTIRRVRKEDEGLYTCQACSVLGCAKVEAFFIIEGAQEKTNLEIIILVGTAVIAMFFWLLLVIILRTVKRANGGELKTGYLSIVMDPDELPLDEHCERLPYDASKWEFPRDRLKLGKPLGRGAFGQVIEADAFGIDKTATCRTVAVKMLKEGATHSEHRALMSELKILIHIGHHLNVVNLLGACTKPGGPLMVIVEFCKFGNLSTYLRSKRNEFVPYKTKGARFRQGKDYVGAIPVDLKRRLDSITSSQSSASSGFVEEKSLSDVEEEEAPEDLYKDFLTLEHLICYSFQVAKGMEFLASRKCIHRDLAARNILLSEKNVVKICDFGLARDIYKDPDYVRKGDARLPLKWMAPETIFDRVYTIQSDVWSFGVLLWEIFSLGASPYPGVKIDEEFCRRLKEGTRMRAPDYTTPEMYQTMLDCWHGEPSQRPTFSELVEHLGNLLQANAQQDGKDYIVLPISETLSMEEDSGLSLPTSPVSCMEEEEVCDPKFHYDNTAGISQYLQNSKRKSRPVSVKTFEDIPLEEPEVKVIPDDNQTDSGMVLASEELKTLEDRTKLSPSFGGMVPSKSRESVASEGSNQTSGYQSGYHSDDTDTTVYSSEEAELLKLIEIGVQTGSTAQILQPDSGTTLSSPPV

[3] = tested on: MDA-MB-231; test: Antiproliferative activity against human MDA-MB-231 cells assessed as cell growth inhibition
[4] = tested on: MCF7; test: Antiproliferative activity against human MCF7 cells assessed as cell growth inhibition
[5] = molecular target: T1, Poly [ADP-ribose] polymerase 1; details: MDA-MB-231, dose 50.0 mg/kg, route po, time 14.0 day
[6] = tested on: MCF7; test: cells; details: Homo sapiens
[7] = tested on: MDA-MB-436; test: cells; details: Homo sapiens
[8] = tested on: MDA-MB-436; test: Antiproliferative activity against human MDA-MB-436 cells assessed as cell growth inhibition
[9] = tested on: HCC1937; test: Antiproliferative activity against human HCC1937 cells assessed as cell growth inhibition
[10] = tested on: MDA-MB-231; test: cells; details: Homo sapiens
[11] = tested on: HCC1937; test: cells; details: Homo sapiens
[12] = tested on: HUVEC; test: cells; details: Homo sapiens, 48 h

Structure (SMILES)	pIC50 [1]	pIC50 [2]	pIC50 [3]	pIC50 [4]	also measured
NC(=O)c1cccc2[nH]c(-c3ccc(Nc4nccc(N5CCN(c6ccc(C(F)(F)F)cn6)CC5)n4)cc3)nc12	7.01	–	–	–	–
Cc1ccc(Nc2nccc(N(C)c3ccc4c(C)n(C)nc4c3)n2)cc1-c1nc2cc(F)c(F)cc2[nH]1	6.17	–	–	–	–
NC(=O)c1cccc2[nH]c(-c3ccc(Nc4nccc(N5CCN(C(=O)c6ccccc6)CC5)n4)cc3)nc12	6.89	< 5.00	< 5.00	< 5.00	–
Cc1c2ccc(N(C)c3ccnc(Nc4ccc(-c5nc6c(C(N)=O)cccc6[nH]5)cc4F)n3)cc2nn1C	6.93	6.60	5.03	< 5.00	–
Cc1c2ccc(N(C)c3ccnc(Nc4cccc(-c5nc6cc(F)c(F)cc6[nH]5)c4)n3)cc2nn1C	6.19	6.72	5.64	5.14	–
Cc1c2ccc(N(C)c3ccnc(Nc4cc(F)c(-c5nc6c(C(N)=O)cccc6[nH]5)c(F)c4)n3)cc2nn1C	6.47	–	–	–	–
Cc1c2ccc(N(C)c3cc(C(F)(F)F)nc(Nc4ccc(C(=O)Nc5nc6c(C(N)=O)cccc6[nH]5)cc4)n3)cc2nn1C	–	< 5.00	–	–	–
CN(c1ccc(N2CCOCC2)cc1)c1ccnc(Nc2ccc(-c3nc4c(C(N)=O)cccc4[nH]3)cc2)n1	7.06	< 5.00	5.01	5.05	–
Cc1c2ccc(N(C)c3ccnc(Nc4ccc(-c5nc6c(C(N)=O)cccc6[nH]5)c(C(F)(F)F)c4)n3)cc2nn1C	6.79	6.57	–	< 5.00	–
CN(c1ccc(Cl)cc1)c1ccnc(Nc2ccc(-c3nc4cc(F)c(F)cc4[nH]3)cc2)n1	6.18	6.37	< 5.00	< 5.00	–
COc1cc(Nc2nccc(N(C)c3ccc4c(C)n(C)nc4c3)n2)ccc1-c1nc2cc(F)c(F)cc2[nH]1	–	6.78	–	–	–
Cc1c2ccc(N(C)c3ccnc(Nc4ccc(-c5nc6cc(F)c(F)cc6[nH]5)c(C(F)(F)F)c4)n3)cc2nn1C	6.17	–	–	–	–
Cc1c2ccc(N(C)c3ccnc(Nc4cccc(-c5nc6c(C(N)=O)cccc6[nH]5)c4)n3)cc2nn1C	7.08	–	–	–	–
CS(=O)(=O)N1CCN(c2ccnc(Nc3ccc(-c4nc5c(C(N)=O)cccc5[nH]4)cc3)n2)CC1	–	< 5.00	–	–	–
CN(c1ccc2ncccc2c1)c1ccnc(Nc2ccc(-c3nc4c(C(N)=O)cccc4[nH]3)cc2)n1	–	6.18	–	–	–
Cc1cnc(Nc2ccc(-c3nc4c(C(N)=O)cccc4[nH]3)cc2)nc1N(C)c1ccc2c(C)n(C)nc2c1	–	< 5.00	–	–	–
CC(C)c1ccc(N(C)c2ccnc(Nc3ccc(-c4nc5c(C(N)=O)cccc5[nH]4)cc3)n2)cc1	7.05	–	–	–	–
Cc1c2ccc(N(C)c3ccnc(Nc4ccc(-c5ccc(-c6nc7c(C(N)=O)cccc7[nH]6)cc5)cc4)n3)cc2nn1C	6.33	6.51	< 5.00	< 5.00	–
CN(c1ccnc(Nc2ccc(-c3nc4c(C(N)=O)cccc4[nH]3)cc2)n1)c1cc(C(C)(C)C)n(C)n1	–	< 5.00	–	–	–
Cc1c2ccc(N(C)c3ccnc(Nc4ccc(-c5nc6c(C(N)=O)cccc6[nH]5)cc4)n3)cc2nn1C	7.02	–	–	–	–
CN(c1ccc(S(C)(=O)=O)cc1)c1ccnc(Nc2ccc(-c3nc4c(C(N)=O)cccc4[nH]3)cc2)n1	–	< 5.00	–	–	–
Cc1c2ccc(N(C)c3ccnc(Nc4ccc(-c5nc6ccccc6[nH]5)c(C(F)(F)F)c4)n3)cc2nn1C	< 5.00	6.67	< 5.00	< 5.00	–

Structure (SMILES)	pIC50 [1]	pIC50 [2]	pIC50 [3]	pIC50 [4]	also measured
Cc1c2ccc(N(C)c3nc(Nc4ccc(-c5nc6c(C(N)=O)cccc6[nH]5)cc4)nc4ccsc34)cc2nn1C	–	< 5.00	–	–	–
CN(c1ccc(N2CCOCC2)c(F)c1)c1ccnc(Nc2ccc(C(=O)Nc3nc4ccccc4[nH]3)cc2)n1	< 5.00	6.14	< 5.00	< 5.00	–
Cc1c2ccc(N(C)c3ccnc(Nc4ccc(C(=O)Nc5nc6c(C(N)=O)cccc6[nH]5)c(C(F)(F)F)c4)n3)cc2nn1C	6.46	–	–	–	–
CN(c1ccc(Cl)cc1)c1ccnc(Nc2ccc(C(=O)Nc3nc4c(C(N)=O)cccc4[nH]3)cc2)n1	6.86	–	–	–	–
COc1ccc(-c2nc3cc(F)c(F)cc3[nH]2)cc1Nc1nccc(N(C)c2ccc3c(C)n(C)nc3c2)n1	–	6.70	–	–	–
NC(=O)c1cccc2[nH]c(NC(=O)c3ccc(Nc4nccc(N5CCN(C(=O)c6ccccc6)CC5)n4)cc3)nc12	6.71	–	–	–	–
CN(c1ccc(F)cc1)c1ccnc(Nc2ccc(-c3nc4c(C(N)=O)cccc4[nH]3)cc2)n1	6.89	–	–	–	–
CN1CCN(C2CCN(c3ccnc(Nc4ccc(-c5nc6c(C(N)=O)cccc6[nH]5)cc4)n3)CC2)CC1	–	< 5.00	–	–	–
COc1cc(N(C)c2ccc3c(C)n(C)nc3c2)nc(Nc2ccc(-c3nc4c(C(N)=O)cccc4[nH]3)cc2)n1	7.10	< 5.00	< 5.00	< 5.00	–
Cc1ccc(Nc2nccc(N(C)c3ccc4c(C)n(C)nc4c3)n2)cc1-c1nc2ccccc2[nH]1	–	6.77	–	–	–
COc1ccc(-c2nc3c(C(N)=O)cccc3[nH]2)cc1Nc1nccc(N(C)c2ccc3c(C)n(C)nc3c2)n1	7.40	6.58	< 5.00	< 5.00	–
Cc1c2ccc(N(C)c3ccnc(Nc4ccc(-c5nc6cc(F)c(F)cc6[nH]5)c(Cl)c4)n3)cc2nn1C	6.12	–	–	–	–
Cc1c2ccc(N(C)c3ccnc(Nc4ccc(C(=O)Nc5nc6c(C(N)=O)cccc6[nH]5)cc4)n3)cc2nn1C	–	6.59	–	–	–
Cc1c2ccc(N(C)c3ccnc(Nc4ccc(-c5nc6c(C(N)=O)cccc6[nH]5)c(Cl)c4)n3)cc2nn1C	6.85	–	–	–	–
Cc1c2ccc(N(C)c3ccnc(Nc4ccc(-c5nc6ccccc6[nH]5)c(Cl)c4)n3)cc2nn1C	< 5.00	6.73	< 5.00	< 5.00	–
Cc1c2ccc(N(C)c3ccnc(Nc4ccc(C(=O)Nc5nc6c(C(N)=O)cccc6[nH]5)c(Cl)c4)n3)cc2nn1C	6.78	–	–	–	–
Cc1cc(N(C)c2ccc3c(C)n(C)nc3c2)nc(Nc2ccc(-c3nc4c(C(N)=O)cccc4[nH]3)cc2)n1	7.07	< 5.00	< 5.00	< 5.00	–
CC(C)c1ccc(N(C)c2ccnc(Nc3ccc(-c4nc5cc(F)c(F)cc5[nH]4)cc3)n2)cc1	–	6.30	–	–	–
O=C(c1cc(Cc2n[nH]c(=O)c3ccccc23)ccc1F)N1CCN(C(=O)C2CC2)CC1 [OLAPARIB]	–	–	< 5.00	< 5.00	inhibition [5]: Active; pIC50 [6]: < 5.00; pIC50 [7]: < 5.00; pIC50 [8]: 5.05; pIC50 [9]: 5.19; pIC50 [10]: < 5.00; pIC50 [11]: < 5.00; pIC50 [12]: 5.34
Cc1cc(Nc2nccc(N(C)c3ccc4c(C)n(C)nc4c3)n2)cnc1-c1nc2c(C(N)=O)cccc2[nH]1	6.82	6.63	5.05	< 5.00	–
COc1cc(Nc2nccc(N(C)c3ccc4c(C)n(C)nc4c3)n2)ccc1-c1nc2c(C(N)=O)cccc2[nH]1	–	6.77	–	–	–
